{"source": "patent US11357742B2", "about": "“Methods for treating cancer” (X4 Pharmaceuticals, Inc., priority 2015, dated 2022)", "key": {"[1]": {"system": "renal cell carcinoma (RCC) xenografts", "conditions": "cited from earlier work"}, "[2]": {"system": "786-0 and A498 RCC xenografts", "assay": "Murine models with human RCC cell line xenografts (tumor size, IHC, IF, flow cytometry)", "type": "in vivo, mice", "conditions": "786-0 and A498 xenografts", "experimental": "With each of the human cell lines, 1×10^7 tumor cells were implanted subcutaneously in the flanks of 36 nude/beige mice and tumors allowed to grow to roughly 7 mm in diameter. […] Therefore, on day 7, the mice were sacrificed and the tumors were measured and immediately excised and divided into three parts. One part of each tumor was paraffin-embedded for dual color immunofluorescence. Another part was mechanically disaggregated and treated with collagenase/DNAse to generate a single cell suspension for flow cytometry. The third part was frozen for future pharmacokinetic analysis. Microscope slides were made from the paraffin-embedded tumor tissue, which were stained with antibodies against CD11b, Gr-1, and FAP. The number of infiltrating CD11b+/Gr-1+ MDSC and FAP+ fibroblasts present in the tumor tissue was then determined by immunofluorescence (IF) as previously described (1).\nThe disaggregated tumor specimens were analyzed for CD11b+/Gr-1+ MDSC and FAP+ fibroblasts by flow cytometry. The fraction of both populations expressing CXCR4 were also determined. […] One part was disaggregated into single cell suspensions and analyzed by flow cytometry as above for MDSC. […] Finally, a bone marrow (BM) sample was generated by extruding marrow from an excised femur with a syringe filled with saline and analyzed by flow cytometry for MDSC."}, "mir-30a and mir-30c": {"system": "mir-30a and mir-30c", "conditions": "786-0 xenograft tumor, after 8 days of treatment", "from_the_text": "Data is presented as mir-30a or mir-30c expression relative to the mean control value (left side) and relative HIF-2α RNA expression."}, "[3]": {"conditions": "cited from earlier work"}, "[4]": {"conditions": "oral; see current product label; cited from earlier work"}, "[5]": {"conditions": "concurrent administration with sunitinib"}}, "data": [{"smiles": "CC(C)(C)C[C@H]1N[C@@H](C(=O)NCC[C@H](O)CO)[C@H](c2ccc(F)c(Cl)c2)[C@@]12C(=O)Nc1cc(Cl)c(F)cc12", "note": "[MI-319]", "values": [{"measurement": "development of sunitinib resistance", "setting": "[1]; [5]", "value": "prevented"}, {"measurement": "influx of MDSC", "setting": "[1]; [5]", "value": "prevented"}, {"measurement": "HIF-2 expression", "setting": "[1]; in vivo", "value": "suppresses"}]}, {"smiles": "CNC(=O)c1ccccc1Sc1ccc2c(/C=C/c3ccccn3)n[nH]c2c1", "note": "[axitinib, N-methyl-2-[3-((E)-2-pyridin-2-yl-vinyl)-1H-indazol-6-ylsulfanyl]-benzamide]", "values": [{"measurement": "effects on tumor growth", "setting": "[2]; nude/beige mice, day 7, axitinib 30 mg/kg daily by gavage", "value": "no"}, {"measurement": "MDSC infiltration of tumors", "setting": "[2]; CD11b+/Gr-1+ cells", "value": "extensive MDSC infiltration"}, {"measurement": "mir-30a and mir-30c expression", "setting": "mir-30a and mir-30c", "value": "suppressed"}, {"measurement": "partition coefficient (n-octanol/water)", "setting": "[3]", "value": 3.5}, {"measurement": "effect of food on absorption", "setting": "[4]", "value": "not altered by food"}]}]}
